Read-outs that look alike come from different tables or passages of the source.
What was measured:
HepG2 cell line [1] = test: MTT anti-proliferative assay, HepG2; assay type: cell-based; conditions: Homo sapiens, 48 h, three independent experiments, read-out: In vitro cytotoxicity IC50, HepG2
Experimental: (§1) In vitro antiproliferative activities of the target molecules were assessed against two human cancer cell lines namely, hepatocellular carcinoma (HepG2) and colorectal carcinoma (HCT-116) using MTT assay.
(§2) The anti-proliferative activity of the synthesized compounds was assessed using MTT assay protocol. A panel of human cancer cell lines namely, colorectal carcinoma (HCT-116) and hepatocellular carcinoma (HepG2) was used in this test. Doxorubicin was used as a positive control. The cell lines were got from ATCC (American Type Culture Collection) via the Holding company for biological products and vaccines (VACSERA, Cairo, Egypt). The anti-proliferative activities of the tested compounds were determined quantitatively as follows:
(§3) At first, the cells were cultured into a medium of RPMI-1640 with 10% fetal bovine serum. Then, two different antibiotics were added at 37°C in a 5% CO2 incubator: penicillin (100 units/mL) and streptomycin (100 μg/mL). Next, we seeded the cells in a 96-well plate by a density of 1.0 x 10^4 cells / well at 37°C for 48 h under 5% CO2. The synthesized compounds with different concentrations were applied into the cell lines and incubated for 48 h. After 48 h, 20 μl of MTT solution (5mg/mL) was added and incubated for 4 h. Then, DMSO (100 μl) was added into each well to dissolve the formed purple formazan. After that, a colorimetric assay was measured and recorded at absorbance of 570 nm using a plate reader (EXL 800, USA). The relative cell viability in percentage was calculated as (A570 of treated samples/A570 of untreated sample) X 100.
(§4) S2: Biological evaluation
(§5) S2.1. In vitro cytotoxic activity
(§6) The anti-proliferative activity of the synthesized compounds was assessed using MTT assay protocol. A panel of human cancer cell lines namely, colorectal carcinoma (HCT-116) and hepatocellular carcinoma (HepG2) was used in this test. As we targeted the DNA and Topo […]
(§7) cell lines were got from ATCC (American Type Culture Collection) via the Holding company for biological products and vaccines (VACSERA, Cairo, Egypt). The anti -proliferative activities of the tested compounds were determined quantitatively as follows:
(§8) At first, the cells were cultured into a medium of RPMI-1640 with 10% fetal bovine serum.
(§9) Then, two different antibiotics were added at 37 ᵒC in a 5% CO2 incubator: penicillin (100 units/mL) and streptomycin (100 µg/mL). Next, we seeded the cells in a 96 -well plate by a density of 1.0 x 10^4 cells / well at 37 ᵒC for 48 h under 5% CO2. The synthesized compounds with different concentrations were applied into the cell lines and incubated for 48 h. After 48 h, 20 µl of MTT solution (5mg/mL) was added and incubated for 4 h. Then, DMSO (100 µl) was added into each well to dissolve the formed purple formazan. After that, a colorimetric assay was measured and recorded at absorbance of 570 nm using a plate reader (EXL 800, USA). The relative cell viability in percentage was calculated as (A570 of treated samples/A570 of untreated sample) X 100. […]

HCT-116 cell line [2] = test: MTT anti-proliferative assay, HCT-116; assay type: cell-based; conditions: Homo sapiens, 48 h, three independent experiments, read-out: In vitro cytotoxicity IC50, HCT-116
Experimental: as §1, §2, §3, §4, §5, §6, §7, §8, §9

[3] = molecular target: T1, Topoisomerase II (Topo II) (Homo sapiens, UniProt P11388); test: In vitro Topo II inhibitory assay (TopoGEN Topo II drug screening kit); assay type: biochemical
T1 construct: purchased TopoGEN, Inc., Columbus
T1 sequence (P11388 whole entry): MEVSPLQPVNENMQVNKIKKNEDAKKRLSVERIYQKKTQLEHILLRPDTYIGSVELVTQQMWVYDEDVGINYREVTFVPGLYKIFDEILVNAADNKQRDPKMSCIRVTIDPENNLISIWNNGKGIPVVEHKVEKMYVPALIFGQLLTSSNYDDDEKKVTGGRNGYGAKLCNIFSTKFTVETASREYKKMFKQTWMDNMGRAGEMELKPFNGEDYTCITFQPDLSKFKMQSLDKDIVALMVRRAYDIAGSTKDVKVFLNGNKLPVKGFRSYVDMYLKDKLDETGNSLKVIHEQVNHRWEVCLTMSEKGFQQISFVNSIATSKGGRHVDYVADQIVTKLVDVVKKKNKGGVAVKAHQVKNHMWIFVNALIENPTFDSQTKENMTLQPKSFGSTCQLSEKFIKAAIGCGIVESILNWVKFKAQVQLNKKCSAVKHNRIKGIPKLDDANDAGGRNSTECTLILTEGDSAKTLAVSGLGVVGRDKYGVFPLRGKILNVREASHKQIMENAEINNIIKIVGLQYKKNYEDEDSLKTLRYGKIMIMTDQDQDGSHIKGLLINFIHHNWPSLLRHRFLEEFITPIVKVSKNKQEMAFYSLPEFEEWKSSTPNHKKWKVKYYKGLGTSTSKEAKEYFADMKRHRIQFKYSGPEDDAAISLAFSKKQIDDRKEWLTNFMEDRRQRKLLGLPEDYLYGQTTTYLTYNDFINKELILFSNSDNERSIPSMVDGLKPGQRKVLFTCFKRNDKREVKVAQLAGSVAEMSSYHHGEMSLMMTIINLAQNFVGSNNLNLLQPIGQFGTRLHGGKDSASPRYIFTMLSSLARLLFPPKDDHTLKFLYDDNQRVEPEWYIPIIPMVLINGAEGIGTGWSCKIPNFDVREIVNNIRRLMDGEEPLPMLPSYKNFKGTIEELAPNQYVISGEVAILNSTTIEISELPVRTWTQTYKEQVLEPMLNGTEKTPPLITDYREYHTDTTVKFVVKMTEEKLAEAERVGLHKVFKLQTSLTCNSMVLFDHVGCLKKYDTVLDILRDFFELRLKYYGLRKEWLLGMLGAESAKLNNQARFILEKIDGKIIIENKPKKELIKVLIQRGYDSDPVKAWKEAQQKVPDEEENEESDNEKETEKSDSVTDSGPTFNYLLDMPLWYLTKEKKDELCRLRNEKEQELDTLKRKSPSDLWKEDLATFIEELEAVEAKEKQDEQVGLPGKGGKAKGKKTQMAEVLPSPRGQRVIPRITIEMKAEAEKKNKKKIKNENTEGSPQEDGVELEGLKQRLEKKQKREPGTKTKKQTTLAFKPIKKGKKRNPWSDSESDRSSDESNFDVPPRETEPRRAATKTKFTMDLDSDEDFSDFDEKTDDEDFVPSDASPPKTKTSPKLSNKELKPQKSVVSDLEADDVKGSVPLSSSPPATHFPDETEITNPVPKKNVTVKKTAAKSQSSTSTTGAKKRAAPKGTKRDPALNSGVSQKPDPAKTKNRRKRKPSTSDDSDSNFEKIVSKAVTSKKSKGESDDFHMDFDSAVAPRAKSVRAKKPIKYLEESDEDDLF
Experimental: The reported method described by Patra et al was applied using Topo II drug screening kit (TopoGEN, Inc., Columbus).
A typical enzyme reaction was structured to determine Topo II activity. The reaction mixture included Topo II (2 μl), substrate super coiled pHot1 DNA (0.25 μg), 50 μg/ml test compound (2 μl), and assay buffer (4 μl). To start the reaction, the mixture was allowed to incubate in 37°C for 30 min. To terminate the reaction, a mixture of 10% sodium dodecylsulphate (2 μl) and proteinase K (50 μg/mL) was added at 37°C for 15 min. then incubated for 15 min at 37°C.
(§10) After that, the DNA was run on 1% agarose gel in BioRad gel electrophoresis system for 1–2 h followed by staining with GelRedTM stain for 2 h and destained for 15 min with TAE buffer. The gel was imaged via BioRad’s Gel DocTMEZ system. Both supercoiled and linear strands DNA were incorporated in the gel as markers for DNA-Topo II intercalators. The results of IC50 values were calculated using the GraphPad Prism version 7. Each reaction was performed in duplicate, and at least three independent determinations of each IC50 were made. […]
S2.2. Measurement of topoisomerase II Activity […]
analyzed for their Topo II inhibitory activities. The reported method described by Patra et al was applied using Topo II drug screening kit (TopoGEN, Inc., Columbus).
A typical enzyme reaction was structured to determine Topo II activity. The reaction mixture included Topo II (2 µl), substrate super coiled pHot1 DNA (0.25 µg), 50 µg/ml test compound (2 µl), and assay buffer (4 µl). To start the reaction, the mixture was allowed to incubate in 37 °C for 30 min. To terminate the reaction, a mixture of 10% sodium dodecylsulphate (2 µl) and proteinase K (50 µg/mL) was added at 37 °C for 15 min. then incubated for 15 min at 37 °C.
as §10

[4] = tested on: Activated Calf Thymus DNA; test: DNA/methyl green assay (DNA intercalation); assay type: binding; conditions: for LogIC50 (best-fit value, DNA/Topo-II Inhibition (%) curve): log of drug concentration in uM
Experimental: The most promising members (13a, 14a, 16, 17, 18, 19, and 20) were further investigated for their binding affinity against DNA. […] The results of DNA-binding affinities were reported in Table 1 as IC50 values calculated from the concentration-inhibition response curve.
Activated Calf Thymus DNA (Merk, Germany) was treated with methyl green (Merk, Germany), then the synthesized compounds were applied to displace the methyl green dye, producing equivalent color.
After that, the DNA was run on 1% agarose gel in BioRad gel electrophoresis system for 1–2 h followed by staining with GelRedTM stain for 2 h and destained for 15 min with TAE buffer. The gel was imaged via BioRad’s Gel DocTMEZ system. Both supercoiled and linear strands DNA were incorporated in the gel as markers for DNA-Topo II intercalators. The results of IC50 values were calculated using the GraphPad Prism version 7. Each reaction was performed in duplicate, and at least three independent determinations of each IC50 were made.
S2.3. DNA/Methyl Green Assay […]
methyl green dye method described by Burres et al. Activated Calf Thymus DNA (Merk, Germany) was treated with methyl green (Merk, Germany), then the synthesized compounds were applied to displace the methyl green dye, producing equivalent color. […]

HepG2 cell line [5] = tested on: HepG2 cell line; parameters: method as in PMID 32882440; conditions: previous work of the authors; read-out: In vitro cytotoxicity IC50, HepG2; cited from earlier work
HCT-116 cell line [6] = tested on: HCT-116 cell line; parameters: method as in PMID 32882440; conditions: previous work of the authors; read-out: In vitro cytotoxicity IC50, HCT-116; cited from earlier work
[7] = molecular target: T1, Topoisomerase II (Topo II); parameters: method as in PMID 32882440; conditions: previous work of the authors; cited from earlier work
[8] = tested on: Activated Calf Thymus DNA; parameters: method as in PMID 32882440; conditions: previous work of the authors; read-out: DNA/Methyl green (IC50); cited from earlier work
[9] = 50% inhibition concentration of DNA/methyl green assay, read-out: DNA/Methyl green (IC50)

Structure (SMILES) | IC50 (HepG2 cell line [1]) | IC50 (HCT-116 cell line [2]) | IC50 [3] | IC50 [4, 9] | LogIC50 (best-fit value, DNA/Topo-II Inhibition (%) curve) ([4]; supplement curve fit) | HillSlope (best-fit value, DNA/Topo-II Inhibition (%) curve) ([4]; supplement curve fit) | further results
CN(C)c1nc2ccccc2c2nnc(-c3ccc(Cl)cc3)n12 [Compound 13b, 3-(4-Chlorophenyl)-N,N-dimethyl-[1,2,4]triazolo[4,3-c]quinazolin-5-amine] | 33.1 ± 1.7 µM | 16.9 ± 0.9 µM | – | – | – | – | –
FC(F)(F)c1nnc2c3ccccc3nc(N3CCOCC3)n12 [Compound 20, 4-(3-(Trifluoromethyl)-[1,2,4]triazolo[4,3-c]quinazolin-5-yl)morpholine] | 8.34 ± 0.3 µM | 4.61 ± 0.2 µM | 20.6 ± 0.9 µM | 34.5 ± 1.2 µM | 1.538 | 0.3425 | –
COc1cccc2c1C(=O)c1c(O)c3c(c(O)c1C2=O)C[C@@](O)(C(=O)CO)C[C@@H]3O[C@H]1C[C@H](N)[C@H](O)[C@H](C)O1 [Doxorubicin, reference compound] | 3.8 ± 0.1 µM | 1.87 ± 0.1 µM | – | 5.64 ± 0.1 µM | – | 0.3659 | IC50 ([4]; supplement curve fit, read-out: IC50 (best-fit value, DNA/Topo-II Inhibition (%) curve)): 5.64 µM
OCCNc1nc2ccccc2c2nnc(C(F)(F)F)n12 [Compound 17, 2-((3-(Trifluoromethyl)-[1,2,4]triazolo[4,3-c]quinazolin-5-yl)amino)ethan-1-ol] | 5.65 ± 0.1 µM | 2.78 ± 0.1 µM | 17.7 ± 0.8 µM | 11.1 ± 0.7 µM | 1.045 | 0.4423 | –
OCCNc1nc2ccccc2c2nnc(-c3ccc(Cl)cc3)n12 [Compound 12b, 2-((3-(4-Chlorophenyl)-[1,2,4]triazolo[4,3-c]quinazolin-5-yl)amino)ethan-1-ol] | 17.8 ± 0.9 µM | 7.03 ± 0.2 µM | – | – | – | – | –
Cc1ccc(-c2nnc3c4ccccc4nc(N4CCOCC4)n23)cc1 [Compound 15a, 4-(3-(p-Tolyl)-[1,2,4]triazolo[4,3-c]quinazolin-5-yl)morpholine] | 20.4 ± 0.9 µM | 20 ± 0.4 µM | – | – | – | – | –
Clc1ccc(-c2nnc3c4ccccc4nc(N4CCOCC4)n23)cc1 [Compound 15b, 4-(3-(4-Chlorophenyl)-[1,2,4]triazolo[4,3-c]quinazolin-5-yl)morpholine] | 23.4 ± 0.9 µM | 21 ± 0.3 µM | – | – | – | – | –
Cc1ccc(-c2nnc3c4ccccc4nc(N(C)C)n23)cc1 [Compound 13a, N,N-Dimethyl-3-(p-tolyl)-[1,2,4]triazolo[4,3-c]quinazolin-5-amine] | 10.7 ± 0.6 µM | 11.6 ± 0.5 µM | 36.1 ± 1.9 µM | 52.9 ± 1.6 µM | 1.723 | 0.4587 | –
O=C(CSc1nnc2c3ccccc3c(=O)n(CC(=O)Nc3ccc(C(=O)O)cc3)n12)Nc1ccc(C(=O)O)cc1 [VIIa] | – | – | – | – | – | – | IC50 (HepG2 cell line [5]): 3.91 ± 0.15 µM; IC50 (HCT-116 cell line [6]): 2.62 ± 0.1 µM; IC50 [7]: 7.45 ± 0.44 µM; IC50 [8]: 48.3 ± 2.3 µM
CCCNc1nc2ccccc2c2nnc(-c3ccc(C)cc3)n12 [Compound 11a, N-Propyl-3-(p-tolyl)-[1,2,4]triazolo[4,3-c]quinazolin-5-amine] | 15.5 ± 1 µM | 8.42 ± 0.3 µM | – | – | – | – | –
Clc1ccc(-c2nnc3c4ccccc4nc(NC4CCCCC4)n23)cc1 [Compound 14b, 3-(4-Chlorophenyl)-N-cyclohexyl-[1,2,4]triazolo[4,3-c]quinazolin-5-amine] | 29.5 ± 1.2 µM | 17.4 ± 0.4 µM | – | – | – | – | –
Cc1ccc(-c2nnc3c4ccccc4nc(NC4CCCCC4)n23)cc1 [Compound 14a, N-Cyclohexyl-3-(p-tolyl)-[1,2,4]triazolo[4,3-c]quinazolin-5-amine] | 13 ± 0.5 µM | 7.66 ± 0.2 µM | 30.4 ± 1.8 µM | 22.5 ± 0.9 µM | 1.353 | 0.4583 | –
Cc1ccc(-c2nnc3c4ccccc4nc(NCCO)n23)cc1 [Compound 12a, 2-((3-(p-Tolyl)-[1,2,4]triazolo[4,3-c]quinazolin-5-yl)amino)ethan-1-ol] | 18.8 ± 1.2 µM | 11.9 ± 0.3 µM | – | – | – | – | –
FC(F)(F)c1nnc2c3ccccc3nc(NC3CCCCC3)n12 [Compound 19, N-Cyclohexyl-3-(trifluoromethyl)-[1,2,4]triazolo[4,3-c]quinazolin-5-amine] | 8.91 ± 0.2 µM | 9.43 ± 0.3 µM | 18.7 ± 0.9 µM | 23.6 ± 1.3 µM | 1.373 | 0.3612 | –
CN(C)c1nc2ccccc2c2nnc(C(F)(F)F)n12 [Compound 18, N,N-Dimethyl-3-(trifluoromethyl)-[1,2,4]triazolo[4,3-c]quinazolin-5-amine] | 6.82 ± 0.2 µM | 4.17 ± 0.1 µM | 18.3 ± 0.8 µM | 12.5 ± 0.6 µM | 1.098 | 0.3961 | –
CCCNc1nc2ccccc2c2nnc(-c3ccc(Cl)cc3)n12 [Compound 11b, 3-(4-Chlorophenyl)-N-propyl-[1,2,4]triazolo[4,3-c]quinazolin-5-amine] | 29.9 ± 1.3 µM | 25 ± 0.9 µM | – | – | – | – | –
